Biological target: bee venom PLA2 (Apis mellifera, UniProt P00630)
Type: biochemical
Conditions: pH 9

Sequence of bee venom PLA2 (P00630 34-167 limits assumed): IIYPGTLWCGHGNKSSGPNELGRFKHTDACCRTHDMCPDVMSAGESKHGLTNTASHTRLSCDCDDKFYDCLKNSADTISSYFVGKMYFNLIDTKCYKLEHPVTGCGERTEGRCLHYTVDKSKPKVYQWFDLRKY

`CCCCC/C=C\C/C=C\CCCCCCCC(=O)O` [linoleic acid, linoleic (cis,cis-Δ^9-,Δ^12-octadecadienoic) acid] was tested, and the “inhibition of the enzymatic activity of bee venom PLA2” value was “inhibit the enzymatic activity of bee venom PLA2 in a dose-dependent manner”.
In the case of `CCCCCCCC/C=C\CCCCCCCC(=O)O` [oleic acid, oleic (cis-Δ^9-octadecenoic) acid], the “inhibition of the enzymatic activity of bee venom PLA2” value was “inhibit the enzymatic activity of bee venom PLA2 in a dose-dependent manner”.

From patent US20080096963A1, “Use Of A Fatty Acid For Preparing A Topical Composition For Allaying Inflammatory Reaction Due To Vennemous Hymenoptera Strings” (CEREP, priority 2004, published 2008)
